“Also recorded” adds a separate entry of the source. Read-outs that look alike come from different tables or passages of the source.
Assays:
[1] = tested on: SARS-CoV-2 (2019-nCoV) virus; assay type: cell-based; conditions: for Copy number of virus genome: 100TCID50, 48 hours, supernatant
influenza = conditions: 600 mg twice daily for five days, adults and adolescents; cited from earlier work
rotavirus = conditions: clinical trials; cited from earlier work
Vero-E6 cells = assay: Cytotoxicity test of drugs, CCK-8 kit; assay type: cell-based; conditions: 48 hours; for Cell viability (% of vehicle control): Vero-E6 cells
Procedure: The cytotoxicity test of drugs was carried out by using CCK-8 kit (Beyotime). Specific steps were as follows:
(1) 1×10^4 Vero-E6 cells (ATCC) were inoculated in a 96-well plate and cultured at 37° C. for 8 hours.
(2) The drug was diluted with DMSO to an appropriate concentration of mother solution, and then diluted with MEM (purchased from Gibco company, Catalog No. 10370021) medium containing 2% FBS (purchased from Gibco company, Catalog No. 16000044) to the same concentration as that for the drug treatment. The original medium in the 96-well plate was discarded, 100 μL of the drug-containing MEM medium was taken and added to the cells, and three replicate wells were set for each concentration. A vehicle control (adding DMSO and medium to cells in wells, without adding drug) and a blank control (adding DMSO and medium to the wells, without cells) were set up. After the drug was added, the cells were cultured at 37° C. for 48 hours.
(3) 20 μL of CCK-8 solution (Beyotime) was added to the well to be tested, mixed gently without generating bubbles, and cultured subsequently at 37° C. for 2 hours. OD450 was read on a microplate reader (purchased from Molecular Devices, model: SpectraMax M5), and the cell viability was calculated:
Cell viability (%)=(A(drug treatment group)−A(blank control))/(A(vehicle control)−A(blank control))×100%
Wherein, A was the reading of the microplate reader.

SMILES: CC(=O)Oc1ccccc1C(=O)Nc1ncc([N+](=O)[O-])s1 [nitazoxanide, 2-(acetyloxy)-N-(5-nitro-2-thiazolyl) benzamide]
- Copy number of virus genome ([1]; 0.14 μM, Vero E6 cells): 820470664.5
- Copy number of virus genome ([1]; 0.41 μM, Vero E6 cells): 363337006
- Copy number of virus genome ([1]; 1.23 μM, Vero E6 cells): 76022948.5
- Copy number of virus genome ([1]; 3.70 μM, Vero E6 cells): 21027512.5
- Copy number of virus genome ([1]; 11.11 μM, Vero E6 cells): 5389366.5
- Copy number of virus genome ([1]; 33.33 μM, Vero E6 cells): 1424671.5
- Copy number of virus genome ([1]; 100 μM, Vero E6 cells): 1220444.5
- Viral RNA load in the cells ([1]; Vero E6 cells, 48 hours after infection by SARS-CoV-2, FIG. 1(a)): can reduce the viral RNA load
- Inhibition of replication of SARS-CoV-2 virus genome in the infected supernatant ([1]; at concentrations of 100 μM, 33 μM, 11.1 μM and 3.7 μM): could effectively inhibit the replication
- Duration of common influenza (influenza): reduced the duration of common influenza
- Treatment of diarrhea in children caused by rotavirus infection (rotavirus): can effectively treat diarrhea
- Cell viability (% of vehicle control) (Vero-E6 cells; 0.14 μM): 98.78 % of vehicle control
- Cell viability (% of vehicle control) (Vero-E6 cells; 0.41 μM): 101.40 % of vehicle control
- Cell viability (% of vehicle control) (Vero-E6 cells; 1.23 μM): 98.54 % of vehicle control
- Cell viability (% of vehicle control) (Vero-E6 cells; 3.70 μM): 96.47 % of vehicle control
- Cell viability (% of vehicle control) (Vero-E6 cells; 11.11 μM): 96.03 % of vehicle control
- Cell viability (% of vehicle control) (Vero-E6 cells; 33.33 μM): 93.58 % of vehicle control
- Cell viability (% of vehicle control) (Vero-E6 cells; 100 μM): 93.29 % of vehicle control
- Toxic effect on the cells (cytotoxicity) (Vero-E6 cells; all test concentrations): no cytotoxicity was observed; also recorded: no toxic effect on the cells

— US20230077704A1, “APPLICATION OF NITAZOXANIDE AND ACTIVE FORM THEREOF, TIZOXANIDE, IN TREATMENT OF SARS-COV-2 INFECTION” (priority 2020, published 2023)
